# From paper PMC12329412, “Study of the mass balance, biotransformation, and safety of [^14C]IBI351 in healthy Chinese subjects” (Journal of Biomedical Research, 2024)
# Values joined by “and” are separate entries in the source; they are usually repeats but may differ in a detail not shown here. Equal entries are not always repeated. “Also recorded” adds a separate entry of the source. Marks after values point to notes of the source that are not given here.
# Legend:
# [1] = Pharmacokinetics of total radioactivity (TRA) in plasma by liquid scintillation counting; type: in vivo, human; conditions: for Tmax: single oral 600 mg/150 μCi [14C]IBI351, fasted, median (min, max)
# Description: This was a single-center, single-dose, open-trial study involving six healthy Chinese male subjects. They received a single dose of 600 mg/150 μCi [^14C]IBI351 on day 1 after fasting for at least 10 h. Blood, urine, and fecal samples were collected at specified time points or intervals within 15 days (0–336 h) following the administration of [^14C]IBI351.
# The endpoint of blood analysis was a plasma radioactivity concentration less than 1/8 of the baseline plasma value. Venous blood samples were collected from the six subjects (01101–01106) at the following time points (in hours): −1 (pre-dosing), 0.5, 1, 2, 4, 8, 12, 24, and at 24-h intervals (post-dosing). Whole blood aliquots were collected for radioactivity measurement, and blood samples were centrifuged (1500 [± 10] g, 4 ℃, 10 min) for metabolite identification. All samples were stored at −10–−30 ℃ until analysis.
# Blood, plasma, urine, and fecal samples were analyzed for TRA using the Tri-Carb model 3110 TR liquid scintillation counter (PerkinElmer, Waltham, MA, USA). Blood samples were divided into two parallel portions (0.5 g) and completely burned by OX-501 oxidizer (R.J. Harvey, Tappan, NY, USA). Finally, the samples were analyzed by liquid scintillation counting. Plasma (0.5 g) and urine (1 g) samples were directly analyzed by liquid scintillation counting. Fecal samples were first homogenized with isopropanol/water (50/50, v/v). The excretion of radioactivity in the urine and feces, referring to the cumulative recovery of total radioactive material in each time period, was defined as the sum of the percentage of TRA in the urine and feces relative to the administered dose. The TRA in each sample during a time period and the percentage of TRA related to the administered dose (% of dose) were calculated using the following formula: % of dosage = (TRA detected in the sample/radioactive dosage) × 100%.
# Statistical analysis of TRA in the whole blood and plasma, concentrations of IBI351, corresponding pharmacokinetic parameters, and urine and fecal excretion data was performed using Microsoft Excel 2010. The pharmacokinetic parameters were calculated using Pkanalix 2021R1 (Lixoft, Antony, France). The drug-time curve was plotted using WinNonlin® (version 8.3, Certara). Data were analyzed using the SAS 9.4 software and presented as mean ± standard deviation.
# [2] = Radioactive metabolite profiling in pooled plasma, urine and feces; type: in vivo, human
# Description: Moreover, four plasma samples at 1 h, 4 h, 48 h, and 96 h were obtained by mixing them in equal volumes. Urine samples were pooled across individuals at an equal volume to obtain one pooled sample within each time period of 0–24 h, 24–48 h, and 48–96 h. Fecal samples (0–192 h) were pooled at the same weight percentages across collection intervals for each subject. Moreover, fecal samples were pooled across individuals at an equal weight to obtain one pooled sample within each time period of 0–72 h, 72–120 h, and 120–192 h. Plasma, urine, and fecal homogenates were extracted and concentrated using organic solvents, and then the redissolved solutions were used for metabolite profile analysis. The plasma, urine, and fecal extracts were separated on HPLC columns, and the HPLC flow fractions were collected in Deepwell LumaPlateTM-96 plates at 15 s/fraction using an automatic fraction collector. The radioactivity of each fraction was quantified using a microplate detector with ARC® Convert and Evaluation software (3.0.2.379) and transformed to obtain the radioactive metabolite spectra. The radioactive metabolite spectra of each sample were integrated to acquire the peak area of each radioactive metabolite peak, the proportion of each spectral peak to the total radioactive intensity of the sample, and the proportion of the radioactivity of the major metabolites to the TRA in the corresponding blood, urine, and fecal samples. Therefore, the ratio of metabolites' concentrations to the total drug exposure (AUC) in the plasma and the ratio of each metabolite's level to the dose administered in the urine and feces were calculated. Liquid chromatography with low-energy radionuclide detection and mass spectrometry was used to identify the main metabolites in human plasma, urine, and fecal samples and to identify the possible biotransformation pathways of IBI351 in these samples.
# [3] = Safety analysis: adverse events and laboratory tests; type: in vivo, human; conditions: for Urea: reference range 3.1–8.0; for Urea / TBIL / ALT / GGT / AST / Cr: listed as [14C]IBI351; for TBIL: reference range 5.1–19.0; for ALT: reference range 9.0–50.0; for GGT: reference range 10.0–60.0; for AST: reference range 15.0–40.0; for Cr: reference range 57.0–97.0; for Safety and tolerability: vital signs, physical indexes, electrocardiogram
# Description: Safety was evaluated based on the adverse events that occurred during the trial. Normal/abnormal changes in physical examination, vital signs, laboratory tests, electrocardiogram, and other results were evaluated before and after the trial.
# [4] = molecular target: T1, albumin (Homo sapiens, UniProt P02768); assay: Covalent binding analysis of IBI351 in the plasma; type: in vitro ADME
# T1 construct: from tissue; host or cells: plasma of healthy human male subjects
# T1 sequence (P02768 25-609): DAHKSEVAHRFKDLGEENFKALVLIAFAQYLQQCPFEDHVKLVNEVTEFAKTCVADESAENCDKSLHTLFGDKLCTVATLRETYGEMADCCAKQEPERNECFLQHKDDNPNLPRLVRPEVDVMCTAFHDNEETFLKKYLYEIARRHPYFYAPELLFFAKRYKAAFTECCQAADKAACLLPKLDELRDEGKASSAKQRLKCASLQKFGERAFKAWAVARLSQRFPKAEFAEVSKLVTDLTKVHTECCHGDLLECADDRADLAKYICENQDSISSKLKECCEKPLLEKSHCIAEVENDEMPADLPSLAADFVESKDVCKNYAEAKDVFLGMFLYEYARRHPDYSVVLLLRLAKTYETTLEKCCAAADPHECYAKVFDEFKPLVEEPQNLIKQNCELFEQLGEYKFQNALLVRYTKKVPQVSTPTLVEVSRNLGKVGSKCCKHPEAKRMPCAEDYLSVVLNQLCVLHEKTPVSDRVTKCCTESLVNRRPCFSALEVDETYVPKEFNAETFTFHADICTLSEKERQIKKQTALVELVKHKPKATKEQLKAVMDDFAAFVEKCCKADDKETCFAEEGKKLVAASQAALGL
# [5] = total plasma radioactivity, single oral 600 mg/150 μCi, n=6, mean±SD
# [6] = D3, individual subjects, rows in order 01101–01106
# [7] = D8, individual subjects, rows in order 01101–01106
# [8] = follow-up visit, individual subjects, rows in order 01101–01106
# [9] = single oral 600 mg/150 μCi, listed as [^14C]IBI351
smiles,measurement,setting,value
C=CC(=O)N1CCN2c3c(c(=O)n(-c4c(C)ccnc4C(C)C)c4nc(-c5c(O)cccc5F)c(Cl)cc34)N(C)C(=O)C2C1 (stereo not drawn) [IBI351],quantifiable time point,[1]; TRA in plasma,456 h
same,Tmax,"[1]; total plasma radioactivity, n=6","2.00 h and 2.00 (2.00, 4.00) h"
same,Tmax,"[1]; total plasma radioactivity, n=6, listed as [^14C]IBI351",2 h
same,AUC0–inf,[1]; [5],4.69×10^5±1.10×10^5 h·ng Eq./mL
same,AUC0–last,[1]; [5],4.33×10^5±1.04×10^5 h·ng Eq./mL
same,CL/F,[1]; [5],1.32 ± 0.319 L/h
same,Cmax,[1]; [5],7.26 × 10^3 (± 1.68 × 10^3) ng Eq./mL and 7.26×10^3±1.68×10^3 ng Eq./mL
same,MRT0–last,[1]; [5],108 ± 4.20 h
same,T1/2,[1]; [5],129 (± 21.7) h and 129±21.7 h
same,Vz/F,[1]; [5],242 ± 50.7 L
same,T1/2,"[1]; total plasma radioactivity, single oral 600 mg/150 μCi, n=6, mean±SD, listed as [^14C]IBI351",129 h
same,Feces (0–192 h) % of dose,[2]; pooled feces 0–192 h,9.71 % of dose
same,Plasma (0–144 h) % of AUC (share of total plasma radioactivity exposure),[2]; pooled plasma 0–144 h,4.54 % of AUC
same,Plasma (0–144 h) Metabolite/parent drug (%),"[2]; pooled plasma 0–144 h, relative to the parent drug",100.00%
same,Urine (0–96 h) % of dose,[2]; pooled urine 0–96 h,1.16 % of dose
same,Feces+urine % of dose,[2]; sum of feces 0–192 h and urine 0–96 h,10.87 % of dose
same,Urea,[3]; [6],4.3 mmol/L and 4.9 mmol/L and 5.1 mmol/L and 4.5 mmol/L and 4.0 mmol/L and 5.5 mmol/L
same,TBIL,[3]; [6],6.4 µmol/L and 12.2 µmol/L and 7.7 µmol/L and 10.0 µmol/L and 11.5 µmol/L and 10.4 µmol/L
same,ALT,"[3]; D3, individual subjects, 01101, 01102–01106",11.4 U/L and 10.3 U/L and 11.0 U/L and 14.4 U/L and 29.0 U/L and 17.0 U/L
same,GGT,[3]; [6],9.9 U/L and 17.1 U/L and 19.1 U/L and 33.0 U/L and 14.4 U/L and 20.1 U/L
same,AST,[3]; [6],18.5 U/L and 11.5 U/L and 10.9 U/L and 16.4 U/L and 23.6 U/L and 19.0 U/L
same,Cr,[3]; [6],73.1 µmol/L and 69.5 µmol/L and 66.4 µmol/L and 69.2 µmol/L and 76.5 µmol/L and 78.7 µmol/L
same,Urea,[3]; [7],3.8 mmol/L and 5.4 mmol/L and 5.6 mmol/L and 4.2 mmol/L and 4.5 mmol/L and 5.1 mmol/L
same,TBIL,[3]; [7],8.1 µmol/L and 14.2 µmol/L and 4.5 µmol/L and 8.0 µmol/L and 15.1 µmol/L and 13.5 µmol/L
same,ALT,[3]; [7],18.3 U/L and 12.1 U/L and 10.5 U/L and 19.8 U/L and 30.9 U/L and 17.9 U/L
same,GGT,[3]; [7],12.1 U/L and 25.8 U/L and 16.8 U/L and 33.8 U/L and 17.0 U/L and 19.2 U/L
same,AST,[3]; [7],24.1 U/L and 14.2 U/L and 15.8 U/L and 15.2 U/L and 22.2 U/L and 17.7 U/L
same,Cr,[3]; [7],69.6 µmol/L and 73.7 µmol/L and 64.2 µmol/L and 72.0 µmol/L and 76.4 µmol/L and 84.3 µmol/L
same,Severity of TEAEs,"[3]; all TEAEs, single oral 600 mg/150 μCi",grade 1
same,Urea,[3]; [8],3.5 mmol/L and 3.8 mmol/L and 5.6 mmol/L and 4.7 mmol/L and 4.1 mmol/L and 6.1 mmol/L
same,TBIL,[3]; [8],8.1 µmol/L and 12.3 µmol/L and 4.5 µmol/L and 7.0 µmol/L and 8.8 µmol/L
same,ALT,[3]; [8],9.5 U/L and 20.5 U/L and 8.0 U/L and 19.4 U/L and 21.4 U/L and 14.7 U/L
same,GGT,[3]; [8],13.4 U/L and 25.8 U/L and 22.0 U/L and 32.9 U/L and 16.9 U/L and 15.9 U/L
same,AST,[3]; [8],15.7 U/L and 14.2 U/L and 16.9 U/L and 11.0 U/L and 19.4 U/L and 17.6 U/L
same,Cr,[3]; [8],72.8 µmol/L and 73.1 µmol/L and 64.2 µmol/L and 71.4 µmol/L and 66.8 µmol/L and 92.4 µmol/L
same,Subjects experiencing treatment-emergent adverse events (TEAEs),"[3]; four of six subjects, TEAEs unrelated to [14C]IBI351, single oral 600 mg/150 μCi",66.7%
same,TEAE: diarrhea,"[3]; share of six subjects, grade 1",33.3%
same,TEAE: elevated blood triglycerides,"[3]; share of six subjects, grade 1",33.3%
same,TEAE: positive fecal occult blood,"[3]; share of six subjects, grade 1",16.7%
same,TEAEs leading to death,[3]; single oral 600 mg/150 μCi,no TEAEs leading to death
same,Serious adverse events,[3]; [9],no serious adverse events; also recorded: no severe adverse events
same,TEAEs of CTCAE grade ≥ 3,[3]; [9],no TEAEs with Common Terminology Criteria for Adverse Events (CTCAE) grade ≥ 3; also recorded: no TEAEs of CTCAE grade ≥ 3
same,Safety and tolerability,[3]; single oral 600 mg/150 μCi,generally safe and well tolerated
same,Safety and tolerability,[3]; [9],good safety and tolerance
same,covalent binding in the plasma,[4],presence of covalent binding between IBI351 and albumin
